Patent US8658685B2, “Methods for treatment of kallikrein-related disorders” (Activesite Pharmaceuticals, Inc., priority 2008, dated 2014)

Experiments:
blood-induced hematoma = assay: Hematoma after intracerebral infusion of autologous blood in diabetic rats; format: in vivo, Sprague-Dawley rats; conditions: systemic treatment, 48 h after intracerebral infusion of autologous blood
Procedure: We have compared the response to intracerebral infusion of blood in Sprague-Dawley rats with 1 mo of STZ-induced diabetes with age matched non-diabetic control rats. Fifty μL of autologous whole blood was collected from the tail vein and immediately infused 1 mm anterior, 4 mm lateral and 6 mm in depth to the bregma using a 30 gauge needle at 20 μL per minute. The infusion needle was removed 10 min after injection and the burr hole was sealed with bone wax. Forty-eight hours after intracerebral injection, the animals were perfused with saline and surface hematoma area was examined by measurement of hematoma area relative to total hemisphere area.

Plasmin = Plasmin (Homo sapiens, UniProt P00747); assay: Inhibitor profile of ASP-440: Plasmin; format: biochemical
Factor IXa = Factor IXa (Homo sapiens, UniProt P00740); assay: Inhibitor profile of ASP-440: Factor IXa; format: biochemical
Factor XIa = Factor XIa (Homo sapiens, UniProt P03951); assay: Inhibitor profile of ASP-440: Factor XIa; format: biochemical
Thrombin = Thrombin (Homo sapiens, UniProt P00734); assay: Inhibitor profile of ASP-440: Thrombin; format: biochemical
[1] = molecular target: T1, endogenous PK in human plasma (Homo sapiens, UniProt P03952); assay: Inhibition of endogenous PK in human plasma; format: biochemical; conditions: read-out: Kiapp
T1 construct: from tissue; host or cells: human plasma

[2] = molecular target: purified human plasma kallikrein (PK) (Homo sapiens, UniProt P03952); assay: Inhibitor profile of ASP-440: plasma kallikrein; format: biochemical
[3] = molecular target: Porcine Pancreatic Kallikrein (Sus scrofa, UniProt P00752); assay: Inhibitor profile of ASP-440: Porcine Pancreatic Kallikrein; format: biochemical
[4] = test system: recombinant tissue factor; assay: Plasma coagulation time, activation with Innovin reagent; format: biochemical; conditions: plasma activated by Innovin reagent; concentrations up to 30 μM
[5] = test system: plasma kallikrein-induced hematoma; assay: Hematoma after intracerebral injection of purified activated plasma kallikrein in diabetic rats; format: in vivo, rat; conditions: 2 hrs following plasma kallikrein injection, 24 hrs pretreatment via subcutaneous osmotic pump
Text: The increased response of diabetic rats to the model of intracerebral hemorrhage described above could be due to factors within the blood or due to an increased response in the neurovascular tissue. To evaluate the latter, we performed intracerebral injections of purified activated plasma kallikrein in rats with 1 mo of STZ-induced diabetes or age-matched non-diabetic controls. The contralateral hemisphere was subjected to an equivalent injection with saline vehicle. […]

[6] = test system: ischemia-induced cerebral vascular permeability and infarct; assay: Middle cerebral artery occlusion (MCAO) in rats with 4 weeks of STZ-induced diabetes; format: in vivo, rat; conditions: vs diabetic rats receiving vehicle
Procedure: Rats were implanted with a single subcutaneous osmotic pump containing ASP-440, as indicated. Cerebral vascular permeability was measured using Evan's blue dye method 2 hours after occlusion.
Infarct area was measured using Triphenyltetrazolium chloride stain after 24 hours of permanent occlusion.
The effect of diabetes on cerebral vascular permeability induced by ischemia was examined in rats subjected to middle cerebral artery occlusion (MCAO). […] Cerebral vascular permeability following MCAO was increased in the diabetic rats compared with nondiabetic rats (FIG. 14). […] MCAO-induced infarct area is increased in rats with 4 weeks of diabetes compare with nondiabetic rats (FIG. 15).

[7] = test system: diabetes-induced retinal vascular permeability; assay: Diabetes-induced retinal vascular permeability in rats; format: in vivo, rat; conditions: STZ-induced diabetes, 28 days; subcutaneous osmotic pump; Evan's blue dye method
astrocytes [8] = assay: Plasma kallikrein binding to astrocytes; format: cell-based
Text: (§1) We have also studied the effects of plasma kallikrein pathway activation on astrocytes. […] Exposure of astrocytes to plasma kallikrein potently stimulated ERK phosphorylation, and this action of kallikrein on astrocytes is not affected by B2-R antagonism (Hoe140). The effect of kallikrein on astrocytes was blocked by leupeptin, a protease inhibitor and C1-INH (data not shown). […] This is in contrast to the bradykinin effect, which is rapid and transient (data not shown). Plasma kallikrein's effect on ERK phosphorylation in astrocytes is dose dependent, reaching a maximal effect at 100 nM kallikrein (data not shown). […] In addition, plasma kallikrein binding to astrocytes was blocked by AS-440 (FIG. 9B) and C1-INH (data not shown).

[9] = test system: intrinsic coagulation pathway; assay: Plasma coagulation time, activation with Actin FS reagent; format: biochemical; conditions: at 10 μM; plasma activated with Actin FS reagent
astrocytes [10] = assay: Plasma kallikrein-induced ERK phosphorylation in astrocytes; format: cell-based; conditions: astrocytes exposed to plasma kallikrein
Text: as §1

[11] = test system: AngII-induced retinal vascular permeability; assay: AngII-induced retinal vascular permeability in rats; format: in vivo, rat; conditions: AngII and ASP-440 via 2 Alzet pumps for 7 days; Evan's blue dye method
Procedure: Rats were implanted with a single subcutaneous osmotic pump containing Ang II or two pumps containing AngII and ASP-465, as indicated. RVP was measured using vitreous fluorophotometry after 3 days.
RVP was measured using Evan's blue dye method after 7 days.
We examined the effect of the kallikrein inhibitor ASP-465 on RVP induced by angiotensin II (AngII).

[12] = molecular target: Tissue Factor-Factor VIIa (Homo sapiens, UniProt P08709); assay: Inhibitor profile of ASP-440: Tissue Factor-Factor VIIa; format: biochemical
Factor Xa = Factor Xa (Homo sapiens, UniProt P00742); assay: Inhibitor profile of ASP-440: Factor Xa; format: biochemical
[13] = molecular target: T2, endogenous PK in rat plasma (Rattus norvegicus, UniProt P14272); assay: Inhibition of endogenous PK in rat plasma; format: biochemical; conditions: read-out: Kiapp
T2 construct: from tissue; host or cells: rat plasma

Factor XIIa = molecular target: T3, Factor XIIa (Homo sapiens, UniProt P00748); assay: Inhibitor profile of ASP-440: Factor XIIa; format: biochemical
T3 sequence (P00748 373-615 limits assumed): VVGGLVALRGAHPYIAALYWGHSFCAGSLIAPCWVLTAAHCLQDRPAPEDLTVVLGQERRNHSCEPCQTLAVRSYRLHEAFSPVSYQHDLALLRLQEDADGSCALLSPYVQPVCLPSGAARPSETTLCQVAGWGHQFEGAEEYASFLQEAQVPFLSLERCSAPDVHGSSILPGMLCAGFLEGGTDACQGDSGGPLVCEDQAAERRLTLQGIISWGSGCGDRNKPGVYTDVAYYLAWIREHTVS

Sequence of Plasmin (P00747 581-810 limits assumed, species assumed): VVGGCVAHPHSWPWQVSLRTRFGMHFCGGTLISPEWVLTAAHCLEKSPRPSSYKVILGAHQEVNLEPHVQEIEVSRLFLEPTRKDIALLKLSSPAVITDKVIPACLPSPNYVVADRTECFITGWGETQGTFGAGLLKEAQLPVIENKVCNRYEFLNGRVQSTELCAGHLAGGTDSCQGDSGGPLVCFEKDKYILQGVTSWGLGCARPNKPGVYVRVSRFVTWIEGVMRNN
Sequence of Plasmin (P00747 97-580 partner limits assumed, species assumed): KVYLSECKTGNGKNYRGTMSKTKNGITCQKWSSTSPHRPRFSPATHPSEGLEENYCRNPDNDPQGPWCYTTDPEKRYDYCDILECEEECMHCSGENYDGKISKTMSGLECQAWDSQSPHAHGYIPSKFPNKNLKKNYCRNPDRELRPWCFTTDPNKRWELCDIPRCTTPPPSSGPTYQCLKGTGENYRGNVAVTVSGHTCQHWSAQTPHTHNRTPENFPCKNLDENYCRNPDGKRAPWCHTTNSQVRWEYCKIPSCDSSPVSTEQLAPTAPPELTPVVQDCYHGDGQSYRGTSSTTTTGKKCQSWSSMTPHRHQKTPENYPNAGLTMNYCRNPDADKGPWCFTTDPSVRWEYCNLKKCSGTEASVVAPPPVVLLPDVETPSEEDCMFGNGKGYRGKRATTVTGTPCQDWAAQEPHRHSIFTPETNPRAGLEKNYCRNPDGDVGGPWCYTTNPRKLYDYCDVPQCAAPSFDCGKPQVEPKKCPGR
Sequence of Factor Xa (P00742 235-488 limits assumed): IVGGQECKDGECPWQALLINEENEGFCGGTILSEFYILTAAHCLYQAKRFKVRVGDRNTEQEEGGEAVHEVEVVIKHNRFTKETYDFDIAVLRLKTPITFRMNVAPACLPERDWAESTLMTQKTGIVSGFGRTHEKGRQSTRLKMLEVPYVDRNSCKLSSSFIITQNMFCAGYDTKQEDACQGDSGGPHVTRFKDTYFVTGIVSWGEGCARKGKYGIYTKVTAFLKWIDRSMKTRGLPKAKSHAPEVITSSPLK
Sequence of Factor Xa (P00742 41-179 partner limits assumed): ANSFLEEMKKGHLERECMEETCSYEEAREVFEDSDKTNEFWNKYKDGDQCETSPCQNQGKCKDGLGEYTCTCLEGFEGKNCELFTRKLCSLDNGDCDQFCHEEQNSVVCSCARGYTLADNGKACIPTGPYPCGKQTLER
Sequence of Tissue Factor-Factor VIIa (P08709 213-466 limits assumed): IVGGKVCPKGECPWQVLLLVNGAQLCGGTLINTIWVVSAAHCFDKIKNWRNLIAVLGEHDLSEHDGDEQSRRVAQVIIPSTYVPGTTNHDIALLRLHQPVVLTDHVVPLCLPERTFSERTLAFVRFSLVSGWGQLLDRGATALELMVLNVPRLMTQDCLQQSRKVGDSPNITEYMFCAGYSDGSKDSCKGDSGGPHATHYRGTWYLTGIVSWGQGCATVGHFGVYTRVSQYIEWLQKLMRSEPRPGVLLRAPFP
Sequence of Tissue Factor-Factor VIIa (P08709 61-212 partner limits assumed): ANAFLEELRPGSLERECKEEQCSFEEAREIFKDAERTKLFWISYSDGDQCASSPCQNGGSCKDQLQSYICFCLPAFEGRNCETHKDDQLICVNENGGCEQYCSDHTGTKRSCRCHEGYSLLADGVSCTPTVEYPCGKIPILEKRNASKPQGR
Sequence of Tissue Factor-Factor VIIa (P13726 33-295 partner): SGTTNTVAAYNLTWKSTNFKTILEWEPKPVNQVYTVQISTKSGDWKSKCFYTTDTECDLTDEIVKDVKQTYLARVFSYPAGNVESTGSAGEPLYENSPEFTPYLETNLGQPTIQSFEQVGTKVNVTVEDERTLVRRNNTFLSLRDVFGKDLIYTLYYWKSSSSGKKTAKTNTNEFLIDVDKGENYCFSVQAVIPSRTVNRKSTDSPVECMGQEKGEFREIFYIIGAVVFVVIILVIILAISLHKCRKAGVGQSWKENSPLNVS
Sequence of Factor IXa (P00740 227-461 limits assumed): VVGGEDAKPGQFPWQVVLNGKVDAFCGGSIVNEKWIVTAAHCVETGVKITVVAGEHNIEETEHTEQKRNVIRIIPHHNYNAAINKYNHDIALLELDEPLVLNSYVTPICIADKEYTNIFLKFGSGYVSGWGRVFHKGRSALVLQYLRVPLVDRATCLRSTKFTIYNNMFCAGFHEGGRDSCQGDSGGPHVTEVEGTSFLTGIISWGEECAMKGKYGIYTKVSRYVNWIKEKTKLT
Sequence of Factor IXa (P00740 47-191 partner limits assumed): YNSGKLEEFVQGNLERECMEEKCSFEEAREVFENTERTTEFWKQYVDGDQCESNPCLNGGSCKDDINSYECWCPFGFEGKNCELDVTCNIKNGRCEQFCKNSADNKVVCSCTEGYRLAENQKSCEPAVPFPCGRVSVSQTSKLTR
Sequence of purified human plasma kallikrein (PK) (P03952 20-638): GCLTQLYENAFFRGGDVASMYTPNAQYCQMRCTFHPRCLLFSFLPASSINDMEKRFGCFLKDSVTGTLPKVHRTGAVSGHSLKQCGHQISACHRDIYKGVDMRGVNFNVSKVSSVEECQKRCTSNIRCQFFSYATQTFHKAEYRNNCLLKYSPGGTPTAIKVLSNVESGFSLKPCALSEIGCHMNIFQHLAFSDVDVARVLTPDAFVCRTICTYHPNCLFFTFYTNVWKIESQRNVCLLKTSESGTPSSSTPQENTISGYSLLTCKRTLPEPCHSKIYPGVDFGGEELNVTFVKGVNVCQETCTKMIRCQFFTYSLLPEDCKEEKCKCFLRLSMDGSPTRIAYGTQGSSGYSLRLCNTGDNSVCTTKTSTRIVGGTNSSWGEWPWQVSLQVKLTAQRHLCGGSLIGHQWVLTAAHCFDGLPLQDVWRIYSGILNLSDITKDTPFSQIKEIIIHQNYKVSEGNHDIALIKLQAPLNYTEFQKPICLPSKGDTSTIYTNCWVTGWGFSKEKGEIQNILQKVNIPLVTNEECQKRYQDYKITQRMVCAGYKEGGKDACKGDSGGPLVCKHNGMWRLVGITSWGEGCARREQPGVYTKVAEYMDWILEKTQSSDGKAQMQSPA
Sequence of Porcine Pancreatic Kallikrein (P00752 8-246): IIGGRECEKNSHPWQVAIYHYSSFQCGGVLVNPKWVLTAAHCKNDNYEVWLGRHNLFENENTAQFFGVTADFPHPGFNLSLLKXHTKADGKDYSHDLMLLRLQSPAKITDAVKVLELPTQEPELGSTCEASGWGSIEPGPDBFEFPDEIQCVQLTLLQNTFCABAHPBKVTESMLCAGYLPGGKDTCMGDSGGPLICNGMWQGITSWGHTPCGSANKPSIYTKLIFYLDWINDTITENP
Sequence of Factor XIa (P03951 388-625 limits assumed): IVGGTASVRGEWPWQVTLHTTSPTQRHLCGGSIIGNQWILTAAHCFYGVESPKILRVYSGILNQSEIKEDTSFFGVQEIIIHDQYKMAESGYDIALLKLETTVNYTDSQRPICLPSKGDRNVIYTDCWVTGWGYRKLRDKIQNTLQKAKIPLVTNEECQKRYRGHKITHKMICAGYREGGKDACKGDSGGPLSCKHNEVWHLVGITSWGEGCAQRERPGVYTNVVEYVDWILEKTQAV
Sequence of Factor XIa (P03951 19-387 partner limits assumed): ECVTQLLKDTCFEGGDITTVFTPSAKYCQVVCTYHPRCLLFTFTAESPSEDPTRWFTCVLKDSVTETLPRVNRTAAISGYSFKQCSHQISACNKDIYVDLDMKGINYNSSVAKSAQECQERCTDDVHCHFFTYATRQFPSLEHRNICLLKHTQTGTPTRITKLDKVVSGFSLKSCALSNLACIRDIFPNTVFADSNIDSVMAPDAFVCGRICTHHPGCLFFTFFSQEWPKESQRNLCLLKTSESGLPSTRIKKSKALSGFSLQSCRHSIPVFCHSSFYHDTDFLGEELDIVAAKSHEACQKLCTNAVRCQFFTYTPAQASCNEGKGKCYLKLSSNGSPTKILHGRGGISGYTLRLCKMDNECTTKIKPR
T1 sequence (P03952 20-638): as the sequence (P03952 20-638) above
T2 sequence (P14272 20-638): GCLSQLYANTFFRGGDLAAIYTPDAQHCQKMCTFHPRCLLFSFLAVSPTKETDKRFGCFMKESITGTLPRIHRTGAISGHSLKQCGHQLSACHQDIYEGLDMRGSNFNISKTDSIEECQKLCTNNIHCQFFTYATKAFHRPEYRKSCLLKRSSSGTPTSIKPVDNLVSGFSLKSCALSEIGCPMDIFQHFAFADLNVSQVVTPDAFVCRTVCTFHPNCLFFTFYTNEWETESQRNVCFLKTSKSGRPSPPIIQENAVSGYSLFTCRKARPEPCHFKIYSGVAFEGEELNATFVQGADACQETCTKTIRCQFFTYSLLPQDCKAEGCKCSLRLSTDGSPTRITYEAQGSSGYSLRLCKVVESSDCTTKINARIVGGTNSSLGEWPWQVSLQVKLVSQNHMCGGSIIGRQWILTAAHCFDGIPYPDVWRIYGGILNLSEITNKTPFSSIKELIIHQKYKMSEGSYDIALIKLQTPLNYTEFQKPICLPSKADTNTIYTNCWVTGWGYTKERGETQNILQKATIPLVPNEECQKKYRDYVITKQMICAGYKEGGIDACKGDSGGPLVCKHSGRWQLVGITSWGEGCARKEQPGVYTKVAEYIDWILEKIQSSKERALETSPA

In the case of `N=C(N)c1ccc(CNC(=O)c2cnn(Cc3ccccc3)c2)cc1` [ASP-440, 1-Benzyl-1H-pyrazole-4-carboxylic acid 4-carbamimidoyl-benzylamide], the hematoma area (blood-induced hematoma) is reported as “reduced hematoma area in diabetic rats to a level comparable to that observed in non-diabetic controls”, the Ki (Plasmin; Plasmin) is reported as 16 µM and the inhibition at 1 µM (Plasmin; predicted inhibition at 1 μM) is reported as 6%. The inhibition at 10 µM (Plasmin; predicted inhibition at 10 μM) was 38%, the Ki (Factor IXa; Factor IXa) was greater than 100 µM and the inhibition at 1 µM (Factor IXa; predicted inhibition at 1 μM) was 0%. The inhibition at 10 µM (Factor IXa; predicted inhibition at 10 μM) was 0%, the Ki (Factor XIa; Factor XIa) was 120 µM and the inhibition at 1 µM (Factor XIa; predicted inhibition at 1 μM) was 0%. It also gave an inhibition at 10 µM (Factor XIa; predicted inhibition at 10 μM) of 7%, a Ki (Thrombin; Thrombin) of 110 µM and an inhibition at 1 µM (Thrombin; predicted inhibition at 1 μM) of 1%. It also gave an inhibition at 10 µM (Thrombin; predicted inhibition at 10 μM) of 9%, a Ki [1] of 0.2 µM and a Ki ([2]; PlasmaKallikrein) of 0.1 µM. The inhibition at 1 µM ([2]; predicted inhibition at 1 μM) was 91%, the inhibition at 10 µM ([2]; predicted inhibition at 10 μM) was 99% and the mode of inhibition ([2]; purified human plasma kallikrein) was “competitive and reversible”. The Ki ([3]; Porcine Pancreatic Kallikrein) was greater than 100 µM, the inhibition at 1 µM ([3]; predicted inhibition at 1 μM) was 0% and the inhibition at 10 µM ([3]; predicted inhibition at 10 μM) was 0%. For the same compound, the “effect on coagulation time” value [4] was “without measurable effect”, the hematoma response [5] was “decreased” and the “reduction of cerebral vascular permeability” value ([6]; 3 days pretreatment via subcutaneous osmotic pump, MCAO for 2 hrs) was “about 50%”. For the same compound, the “decrease of infarct area” value ([6]; treatment 3 days prior to MCAO, 24 hours of permanent occlusion) was “about 40%”, the RVP [7] was “normal levels of RVP” and the “plasma kallikrein binding to astrocytes” value (astrocytes [8]) was “blocked”. For the same compound, the “prolongation of coagulation time in plasma” value [9] was roughly 50%, the “effect of kallikrein on ERK phosphorylation” value (astrocytes [10]) was “blocked” and the RVP [11] was “normal levels of RVP”. It also gave a Ki ([12]; Tissue Factor-Factor VIIa) of 160 µM, an inhibition at 1 µM ([12]; predicted inhibition at 1 μM) of 0% and an inhibition at 10 µM ([12]; predicted inhibition at 10 μM) of 6%. The Ki (Factor Xa; Factor Xa) was 85 µM, the inhibition at 1 µM (Factor Xa; predicted inhibition at 1 μM) was 0% and the inhibition at 10 µM (Factor Xa; predicted inhibition at 10 μM) was 11%. The Ki [13] was 0.4 µM, the Ki (Factor XIIa; Factor XIIa) was greater than 100 µM and the inhibition at 1 µM (Factor XIIa; predicted inhibition at 1 μM) was 0%. It also gave an inhibition at 10 µM (Factor XIIa; predicted inhibition at 10 μM) of 1%.
